{"source": "patent US11344607B2", "about": "“Treatment of disease with relaxin” (BV Biomed Ltd, priority 2015, dated 2022)", "key": {"CCR5": {"system": "CCR5", "assay": "RT-PCR of spinal cord, CCR5 expression", "assay_type": "in vivo, mice", "experimental": "(§1) At 7-8 weeks of age, mice were immunized with […] emulsion (Hooke Laboratories #EK-2110 provided pre-formulated). Mice received pertussis toxin (Hooke Laboratory, Cat #EK-2110 provided lyophilized) reconstituted in phosphate buffered saline (PBS) at the time of immunization (day 0; 75 ng) and on day 2 (200 ng). Animals were scored daily for disease severity: 0=normal, 1=tail paralysis, 2=tail paralysis and strong hind limb weakness, 3=complete hind limb paralysis, 4=hind limb and forelimb paralysis, 5=found dead.\n(§2) At the onset of EAE (the first day with a score of 1 or greater), subcutaneous alzet pumps (DURECT Corporation, Cupertino, Calif.) were inserted and the animals were randomly assigned to receive either porcine relaxin (SKY BioHealth, Inc., Eden Prairie, Minn., 66.0 μg/day) or placebo treatment (1 μ/Hr PBS), either recombinant porcine relaxin (pRLN, n=8) or placebo (PBS, n=8) at a rate of 0.110/hr. […]\n(§3) β-actin. Alternatively RT-PCR for the chemokine receptors (CCR); CCR2, CCR5, CCR7, the interleukins (IL-6 and IL-17) were analyzed using quantitect primers (table 2) and SYBR green based RT-PCR kits (Qiagen, Valencia, Calif.). For histology, spinal cords sections were stained using luxol fast blue-periodic acid shiff for semi-quantitative analysis of infiltration and demyelination."}, "myelin": {"system": "myelin", "assay": "Kiernan's eriochrome cyanin stain of spinal cord for myelin", "assay_type": "in vivo", "conditions": "EAE mice, vs untreated (loss of myelin)", "experimental": "(§4) For alternative histology, spinal cords were formalin fixed and paraffin embedded (FFPE) as described by Canene-Adams [Canene-Adams, 2013]. Briefly, Spinal cords were rinsed in PBS to remove blood and fixed in 10% formalin for 48 hours at room temperature. Tissues were then transferred to 70% ethanol (ETOH) for 1 hour, 95% ETOH (95% ETOH/5% methanol) for 1 hour, then incubated in four absolute ETOH baths first for 1 hour, then 2 for 1½ hours, followed by a fourth for 2 hours. Tissues were then cleared with two xylene baths for 1 hour each. Tissues were then incubated in two paraffin baths at 58° C. for 1 hour each. Tissues were then removed and placed in cassettes.\n(§5) The FFPE tissues were sectioned into […] slices on a microtome. Slices were transferred to glass slides and warmed to 65° C. for 20 minutes to bond the tissue to the glass.\n(§6) Sections were stained with Kiernan's eriochrome cyanin for myelin [Kiernan J A, 1999], cluster of differentiation 68 (CD68) for macrophages [Holness and Simmons, 1993], neurofilaments [Alberts, B. 2002] and glial fibrillary acidic protein (GFAP) [Jacque C M, et al, 1978].\nKiernan's stain for myelin was done as described. First tissues were placed in a solution containing eriochrome cyanine R, ferric chloride and sulphuric acid in water for 20 minutes. Rinsed briefly under tap water and differentiated with aqueous ferric chloride (5.6%). […]"}, "spinal cord lesions": {"system": "spinal cord lesions", "assay": "Spinal cord histology, infiltration and demyelination (lesion load)", "assay_type": "in vivo", "conditions": "EAE mice, compared to control animals, data not shown", "experimental": "as §3"}, "IL-6": {"system": "IL-6", "assay": "RT-PCR of spinal cord, IL-6 expression", "assay_type": "in vivo, mice", "conditions": "for change of spinal cord IL-6 expression vs placebo: EAE mice, in words", "experimental": "as §1\n(§7) At the onset of EAE (the first day with a score of 1 or greater), subcutaneous alzet pumps (DURECT Corporation, Cupertino, Calif.) were inserted and the animals were randomly assigned to receive either porcine relaxin (SKY BioHealth, Inc., Eden Prairie, Minn., […]) or placebo treatment (1 μ/Hr PBS), either recombinant porcine relaxin (pRLN, n=8) or placebo (PBS, n=8) at a rate of 0.110/hr. Relaxin (SKY BioHealth, Inc., Eden Prairie, Minn/) was administered at a concentration of 0.25 mg/ml for the remainder of the study. This delivered a standard dose of 0.66 μg/day of pRLN, which is equivalent to the identified effective dose of 30 μg/KG body weight/day (Hasse et al, 2014). Statistical analysis was done using the t-test and P values <0.05 were considered to be statistically significant.\n(§8) Spinal cords and brains were collected for RT-PCR and histopathology. Total RNA was isolated from spinal cord and brain tissue using the RNeasy mini-kit protocol (Qiagen; Valencia, Calif.) and converted to cDNA using oligo(dT), random hexamers, and Superscript RT II (Invitrogen; Grand Island, N.Y.). […]\nas §3"}, "[1]": {"conditions": "limited clinical trials (Smith 2006); cited from earlier work"}, "IL-17": {"system": "IL-17", "assay": "RT-PCR of spinal cord, IL-17 expression", "assay_type": "in vivo, mice", "conditions": "for change of spinal cord IL-17 expression vs placebo: EAE mice, in words", "experimental": "as §1, §7, §8, §3"}, "CCR2": {"system": "CCR2", "assay": "RT-PCR of spinal cord, CCR2 expression", "assay_type": "in vivo, mice", "experimental": "as §1, §2, §3"}, "neurofilaments": {"system": "neurofilaments", "assay": "Neurofilament immunohistochemistry of spinal cord", "assay_type": "in vivo", "conditions": "EAE mice, vs untreated; listed as RLN", "experimental": "as §4, §5, §6\n(§9) Standard immunohistochemistry [Ramos-vara and Miller, 2014] was used to identify the presence of CD68, neurofilaments and GFAP in the FFPE tissues. Essentially the appropriate antibody directed against the antigen of choice was incubated with the tissue and allowed to bind. […]"}, "[2]": {"system": "inflammation and Wallerian degeneration of the spinal cord", "assay": "H&E staining of spinal cord", "assay_type": "in vivo", "conditions": "EAE mice, vs untreated", "experimental": "as §4, §5\nStaining with Hematoxylin and eosin (H&E) stain was also carried out according to standard protocols."}, "EAE mouse model": {"system": "EAE mouse model", "assay": "EAE disease severity, daily clinical score", "assay_type": "in vivo, mice", "experimental": "Female C57BL/6 mice were obtained and housed at Biomedical Research Models (Worcester, Mass.)\nas §1, §7"}, "MIR2": {"system": "MIR2", "assay": "Spinal cord expression of MIR2", "assay_type": "in vivo", "conditions": "EAE mice, in words (FIG. 3)", "experimental": "as §1, §7\n(§10) Spinal cords and brains were collected for RT-PCR and histopathology. […]"}, "CD68": {"system": "CD68", "assay": "CD68 immunohistochemistry of spinal cord (macrophages)", "assay_type": "in vivo", "conditions": "EAE mice, vs untreated; listed as RLN", "experimental": "as §4, §5, §6, §9"}, "IL-10": {"system": "IL-10", "assay": "RT-PCR of spinal cord, IL-10 expression", "assay_type": "in vivo", "conditions": "EAE mice, in words (FIG. 3)", "experimental": "as §1, §7, §10"}, "GFAP": {"system": "GFAP", "assay": "GFAP immunohistochemistry of spinal cord (gliosis)", "assay_type": "in vivo", "conditions": "EAE mice, untreated stained positive (extensive gliosis)", "experimental": "as §4, §5, §6, §9"}, "CCR7": {"system": "CCR7", "assay": "RT-PCR of spinal cord, CCR7 expression", "assay_type": "in vivo, mice", "experimental": "as §1, §2, §3"}}, "note": "“And” between values parts separate entries of the source, which are not always exact repeats. Equal entries are not always repeated. “Also recorded” adds a separate entry of the source. No end group written: not given here."}
{"substance": "relaxin: porcine relaxin (SKY BioHealth, Inc.), recombinant porcine relaxin (pRLN), infused by subcutaneous alzet pump (Relaxin B chain QSTNDFIKACGRELVRLWVEICGSVSWGRTAL; Relaxin A chain RMTLSEKCCQVGCIRKDIARLC; ends and bridges not checked; cysteine pairing not given here; UniProt P01348 25-56; P01348 161-182, looked up)", "values": [{"measurement": "change of spinal cord CCR5 expression vs PBS/placebo", "setting": "CCR5; EAE mice, in words", "value": "decreased; also recorded: significant reductions"}, {"measurement": "spinal cord expression of CCR5", "setting": "CCR5; normalized to β-actin, EAE mice n=8, further studies (FIG. 2b), not significant vs placebo 0.0046", "value": 0.0035, "unit": "relative units"}, {"measurement": "myelin in spinal cord sections", "setting": "myelin", "value": "decreases myelination and increases remyelination"}, {"measurement": "myelin in spinal cord sections", "setting": "myelin; listed as RLN", "value": "normal appearing myelin"}, {"measurement": "lesion load and size in the spinal cord", "setting": "spinal cord lesions", "value": "reduced lesion load and size"}, {"measurement": "change of spinal cord IL-6 expression vs placebo", "setting": "IL-6", "value": "significantly decreased"}, {"measurement": "change of spinal cord IL-6 expression vs placebo", "setting": "IL-6; listed as RLX", "value": "decreased"}, {"measurement": "spinal cord expression of IL-6", "setting": "IL-6; normalized to β-actin, EAE mice n=8, further studies (FIG. 4), p<0.05 vs placebo 0.0009", "value": 0.0004, "unit": "relative units"}, {"measurement": "severe side effects", "setting": "[1]", "value": "no severe side effects"}, {"measurement": "change of spinal cord IL-17 expression vs placebo", "setting": "IL-17", "value": "significantly decreased"}, {"measurement": "change of spinal cord IL-17 expression vs placebo", "setting": "IL-17; listed as RLX", "value": "decreased"}, {"measurement": "spinal cord expression of IL-17", "setting": "IL-17; normalized to β-actin, EAE mice n=8, further studies (FIG. 4), p<0.05 vs placebo 0.00026", "value": 0.000078, "unit": "relative units"}, {"measurement": "change of spinal cord CCR2 expression vs PBS/placebo", "setting": "CCR2; EAE mice, in words", "value": "decreased; also recorded: significant reductions"}, {"measurement": "spinal cord expression of CCR2", "setting": "CCR2; normalized to β-actin, EAE mice n=8, further studies (FIG. 2b), p<0.05 vs placebo", "value": 0.044, "unit": "relative units"}, {"measurement": "loss of neurofilament in the spinal cord", "setting": "neurofilaments", "value": "relatively greater loss of neurofilaments compared to mice receiving RLN therapy; also recorded: greater loss of neurofilament in the spinal cords of untreated mice"}, {"measurement": "inflammation and Wallerian degeneration of the spinal cord", "setting": "[2]", "value": "decrease in inflammation and Wallerian degeneration"}, {"measurement": "time to marked improvement in clinical score", "setting": "EAE mouse model; EAE mice, after commencing continuous infusion (FIG. 1a)", "value": "≤ 3", "unit": "days"}, {"measurement": "clinical score at the end of treatment", "setting": "EAE mouse model; EAE mice, n=8, scale 0-5, subcutaneous alzet pump from EAE onset, score 2.0 at start, placebo 1.5, listed as RLN", "value": "0.5 and > 0.5"}, {"measurement": "change in clinical score compared to PBS control", "setting": "EAE mouse model; EAE model animals, FIG. 1a", "value": "improvement in clinical score"}, {"measurement": "change of spinal cord MIR2 expression", "setting": "MIR2", "value": "increased"}, {"measurement": "change of spinal cord MIR2 expression", "setting": "MIR2; listed as RLX", "value": "increased the expression of the MIR2"}, {"measurement": "macrophage infiltration of the spinal cord (CD68)", "setting": "CD68", "value": "greater infiltration of macrophages in the untreated samples than in those treated with RLN; also recorded: decreased macrophage infiltration"}, {"measurement": "change of spinal cord IL-10 expression", "setting": "IL-10", "value": "decreased"}, {"measurement": "GFAP staining of spinal cord / gliosis", "setting": "GFAP", "value": "complete lack of gliosis"}, {"measurement": "GFAP staining of spinal cord / gliosis", "setting": "GFAP; listed as RLN", "value": "negative for GFAP; also recorded: did not stain positively for GFAP"}, {"measurement": "change of spinal cord CCR7 expression vs PBS/placebo", "setting": "CCR7; EAE mice, in words", "value": "decreased; also recorded: significant reductions"}, {"measurement": "spinal cord expression of CCR7", "setting": "CCR7; normalized to β-actin, EAE mice n=8, further studies (FIG. 2b), p<0.05 vs placebo 0.014", "value": 0.003, "unit": "relative units"}]}
